# From ChEMBL document CHEMBL2434896, “Carbonic anhydrase inhibitors. Synthesis of heterocyclic 4-substituted pyridine-3-sulfonamide derivatives and their inhibition of the human cytosolic isozymes I and II and transmembrane tumor-associated isozymes IX and XII” (Eur J Med Chem, 2013)
# The source made the active and inactive calls. No cut-off for these calls is given here.
# Columns and labels:
# MDA-MB-468 = experiment: Growth inhibition of human MDA-MB-468 cells at 10 uM after 48 hrs by sulforhodamine B assay; assay type: functional
# NCI-H322M = experiment: Growth inhibition of human NCI-H322M cells at 10 uM after 48 hrs by sulforhodamine B assay; assay type: functional
# UO-31 = experiment: Growth inhibition of human UO31 cells at 10 uM after 48 hrs by sulforhodamine B assay; assay type: functional; settings: UO-31, 48 h, read-out: GI
# CAKI-1 = experiment: Growth inhibition of human CAKI-1 cells at 10 uM after 48 hrs by sulforhodamine B assay; assay type: functional
# HL-60(TB) = experiment: Growth inhibition of human HL-60(TB) cells at 10 uM after 48 hrs by sulforhodamine B assay; assay type: functional
# IGROV-1 = experiment: Growth inhibition of human IGROV1 cells at 10 uM after 48 hrs by sulforhodamine B assay; assay type: functional
# HCT-116 = experiment: Growth inhibition of human HCT116 cells at 10 uM after 48 hrs by sulforhodamine B assay; assay type: functional
# Carbonic anhydrase 9 = Carbonic anhydrase 9 (Homo sapiens, UniProt Q16790); experiment: Inhibition of human carbonic anhydrase 9 after 15 mins by stopped flow CO2 hydration assay
# RXF 393 = experiment: Growth inhibition of human RXF393 cells at 10 uM after 48 hrs by sulforhodamine B assay; assay type: functional
# TK-10 = experiment: Growth inhibition of human TK10 cells at 10 uM after 48 hrs by sulforhodamine B assay; assay type: functional
# Hs-578T = experiment: Growth inhibition of human Hs 578T cells at 10 uM after 48 hrs by sulforhodamine B assay; assay type: functional
# SR = experiment: Growth inhibition of human SR cells at 10 uM after 48 hrs by sulforhodamine B assay; assay type: functional; settings: read-out: GI
# OVCAR-3 = experiment: Growth inhibition of human OVCAR3 cells at 10 uM after 48 hrs by sulforhodamine B assay; assay type: functional
# OVCAR-5 = experiment: Growth inhibition of human OVCAR5 cells at 10 uM after 48 hrs by sulforhodamine B assay; assay type: functional
# SK-MEL-28 = experiment: Growth inhibition of human SK-MEL-28 cells at 10 uM after 48 hrs by sulforhodamine B assay; assay type: functional, cell-based
# SF-268 = experiment: Growth inhibition of human SF268 cells at 10 uM after 48 hrs by sulforhodamine B assay; assay type: functional
# HT-29 = experiment: Growth inhibition of human HT-29 cells at 10 uM after 48 hrs by sulforhodamine B assay; assay type: functional
# SF-539 = experiment: Growth inhibition of human SF539 cells at 10 uM after 48 hrs by sulforhodamine B assay; assay type: functional
# RPMI-8226 = experiment: Growth inhibition of human RPMI8226 cells at 10 uM after 48 hrs by sulforhodamine B assay; assay type: functional
# Malme-3M = experiment: Growth inhibition of human MALME-3M cells at 10 uM after 48 hrs by sulforhodamine B assay; assay type: functional
# DU-145 = experiment: Growth inhibition of human DU145 cells at 10 uM after 48 hrs by sulforhodamine B assay; assay type: functional
# UACC-257 = experiment: Growth inhibition of human UACC257 cells at 10 uM after 48 hrs by sulforhodamine B assay; assay type: functional
# 786-0 = experiment: Growth inhibition of human 786-0 cells at 10 uM after 48 hrs by sulforhodamine B assay; assay type: functional
# OVCAR-8 = experiment: Growth inhibition of human OVCAR8 cells at 10 uM after 48 hrs by sulforhodamine B assay; assay type: functional
# NCI-H460 = experiment: Growth inhibition of human NCI-H460 cells at 10 uM after 48 hrs by sulforhodamine B assay; assay type: functional
# NCI-H522 = experiment: Growth inhibition of human NCI-H522 cells at 10 uM after 48 hrs by sulforhodamine B assay; assay type: functional
# SN12C = experiment: Growth inhibition of human SN12C cells at 10 uM after 48 hrs by sulforhodamine B assay; assay type: functional
# HCC 2998 = experiment: Growth inhibition of human HCC2998 cells at 10 uM after 48 hrs by sulforhodamine B assay; assay type: functional
# HCT-15 = experiment: Growth inhibition of human HCT15 cells at 10 uM after 48 hrs by sulforhodamine B assay; assay type: functional
# LOX IMVI = experiment: Growth inhibition of human LOXIMVI cells at 10 uM after 48 hrs by sulforhodamine B assay; assay type: functional; settings: read-out: GI
# MOLT-4 = experiment: Growth inhibition of human MOLT4 cells at 10 uM after 48 hrs by sulforhodamine B assay; assay type: functional
# A549 = experiment: Growth inhibition of human A549/ATCC cells at 10 uM after 48 hrs by sulforhodamine B assay; assay type: functional; settings: A549, 48 h, read-out: GI
# M14 = experiment: Growth inhibition of human M14 cells at 10 uM after 48 hrs by sulforhodamine B assay; assay type: functional
# UACC-62 = experiment: Growth inhibition of human UACC62 cells at 10 uM after 48 hrs by sulforhodamine B assay; assay type: functional
# NCI-H23 = experiment: Growth inhibition of human NCI-H23 cells at 10 uM after 48 hrs by sulforhodamine B assay; assay type: functional
# ACHN = experiment: Growth inhibition of human ACHN cells at 10 uM after 48 hrs by sulforhodamine B assay; assay type: functional
# MCF7 = experiment: Growth inhibition of human MCF7 cells at 10 uM after 48 hrs by sulforhodamine B assay; assay type: functional
# PC-3 = experiment: Growth inhibition of human PC3 cells at 10 uM after 48 hrs by sulforhodamine B assay; assay type: functional; settings: PC-3, 48 h, read-out: GI
# A498 = experiment: Growth inhibition of human A498 cells at 10 uM after 48 hrs by sulforhodamine B assay; assay type: functional; settings: A498, 48 h, read-out: GI
# SK-MEL-2 = experiment: Growth inhibition of human SK-MEL-2 cells at 10 uM after 48 hrs by sulforhodamine B assay; assay type: functional
# COLO 205 = experiment: Growth inhibition of human COLO205 cells at 10 uM after 48 hrs by sulforhodamine B assay; assay type: functional
# SNB-75 = experiment: Growth inhibition of human SNB75 cells at 10 uM after 48 hrs by sulforhodamine B assay; assay type: functional; settings: SNB-75, 48 h, read-out: GI
# HOP-62 = experiment: Growth inhibition of human HOP62 cells at 10 uM after 48 hrs by sulforhodamine B assay; assay type: functional
# SW-620 = experiment: Growth inhibition of human SW620 cells at 10 uM after 48 hrs by sulforhodamine B assay; assay type: functional
# CCRF-CEM = experiment: Growth inhibition of human CCRF-CEM cells at 10 uM after 48 hrs by sulforhodamine B assay; assay type: functional
# MDA-MB-231 = experiment: Growth inhibition of human MDA-MB-231 cells at 10 uM after 48 hrs by sulforhodamine B assay; assay type: functional
smiles,measurement,setting,value
NS(=O)(=O)c1cnccc1N1CCN(Cc2ccc3c(c2)OCO3)CC1,growth inhibition (GI),MDA-MB-468,inactive
same,growth inhibition (GI),NCI-H322M,inactive
same,inhibition of growth at 10 µM,UO-31,13%
same,growth inhibition (GI),CAKI-1,inactive
same,inhibition of growth at 10 µM,"HL-60(TB); HL-60, 48 h, read-out: GI",7%
same,growth inhibition (GI),IGROV-1,inactive
same,growth inhibition (GI),HCT-116,inactive
same,Ki,Carbonic anhydrase 9,89.4 nM
same,growth inhibition (GI),RXF 393,inactive
same,growth inhibition (GI),TK-10,inactive
same,growth inhibition (GI),Hs-578T,inactive
same,inhibition of growth at 10 µM,SR,9%
same,growth inhibition (GI),OVCAR-3,inactive
same,inhibition of growth at 10 µM,"OVCAR-5; OVCAR-5, 48 h, read-out: GI",2%
same,growth inhibition (GI),SK-MEL-28,inactive
same,growth inhibition (GI),SF-268,inactive
same,growth inhibition (GI),HT-29,inactive
same,inhibition of growth at 10 µM,"SF-539; SF-539, 48 h, read-out: GI",2%
same,growth inhibition (GI),RPMI-8226,inactive
same,growth inhibition (GI),Malme-3M,inactive
same,growth inhibition (GI),DU-145,inactive
same,growth inhibition (GI),UACC-257,inactive
same,growth inhibition (GI),786-0,inactive
same,growth inhibition (GI),OVCAR-8,inactive
same,growth inhibition (GI),NCI-H460,inactive
same,inhibition of growth at 10 µM,"NCI-H522; NCI-H522, 48 h, read-out: GI",2%
same,growth inhibition (GI),SN12C,inactive
same,growth inhibition (GI),HCC 2998,inactive
same,inhibition of growth at 10 µM,"HCT-15; HCT-15, 48 h, read-out: GI",1%
same,inhibition of growth at 10 µM,LOX IMVI,8%
same,inhibition of growth at 10 µM,"MOLT-4; MOLT-4, 48 h, read-out: GI",5%
same,inhibition of growth at 10 µM,A549,2%
same,inhibition of growth at 10 µM,"M14; M14, 48 h, read-out: GI",2%
same,growth inhibition (GI),UACC-62,inactive
same,growth inhibition (GI),NCI-H23,inactive
same,growth inhibition (GI),ACHN,inactive
same,growth inhibition (GI),MCF7,inactive
same,inhibition of growth at 10 µM,PC-3,1%
same,inhibition of growth at 10 µM,A498,10%
same,growth inhibition (GI),SK-MEL-2,inactive
same,growth inhibition (GI),COLO 205,inactive
same,inhibition of growth at 10 µM,SNB-75,9%
same,inhibition of growth at 10 µM,"HOP-62; HOP-62, 48 h, read-out: GI",5%
same,growth inhibition (GI),SW-620,inactive
same,growth inhibition (GI),CCRF-CEM,inactive
same,growth inhibition (GI),MDA-MB-231,inactive
NS(=O)(=O)c1cnccc1N1CCN(c2ccccn2)CC1,inhibition of growth at 10 µM,"MDA-MB-468; MDA-MB-468, 48 h, read-out: GI",1%
same,growth inhibition (GI),NCI-H322M,inactive
same,inhibition of growth at 10 µM,UO-31,11%
same,inhibition of growth at 10 µM,"CAKI-1; CAKI-1, 48 h, read-out: GI",10%
same,growth inhibition (GI),HL-60(TB),inactive
same,growth inhibition (GI),IGROV-1,inactive
same,inhibition of growth at 10 µM,"HCT-116; HCT-116, 48 h, read-out: GI",1%
same,Ki,Carbonic anhydrase 9,113 nM
same,growth inhibition (GI),RXF 393,inactive
same,growth inhibition (GI),TK-10,inactive
same,inhibition of growth at 10 µM,SR,12%
same,growth inhibition (GI),OVCAR-3,inactive
same,growth inhibition (GI),OVCAR-5,inactive
same,growth inhibition (GI),SK-MEL-28,inactive
same,growth inhibition (GI),SF-268,inactive
same,growth inhibition (GI),HT-29,inactive
same,growth inhibition (GI),SF-539,inactive
same,inhibition of growth at 10 µM,"RPMI-8226; RPMI-8226, 48 h, read-out: GI",5%
same,inhibition of growth at 10 µM,Malme-3M; read-out: GI,8%
same,inhibition of growth at 10 µM,"DU-145; DU-145, 48 h, read-out: GI",8%
same,inhibition of growth at 10 µM,"UACC-257; UACC-257, 48 h, read-out: GI",2%
same,inhibition of growth at 10 µM,"786-0; 786-0, 48 h, read-out: GI",2%
same,inhibition of growth at 10 µM,"OVCAR-8; OVCAR-8, 48 h, read-out: GI",12%
same,growth inhibition (GI),NCI-H460,inactive
same,growth inhibition (GI),NCI-H522,inactive
same,inhibition of growth at 10 µM,SN12C; read-out: GI,4%
same,growth inhibition (GI),HCC 2998,inactive
same,growth inhibition (GI),HCT-15,inactive
same,inhibition of growth at 10 µM,LOX IMVI,9%
same,growth inhibition (GI),MOLT-4,inactive
same,inhibition of growth at 10 µM,A549,2%
same,growth inhibition (GI),M14,inactive
same,growth inhibition (GI),UACC-62,inactive
same,inhibition of growth at 10 µM,"NCI-H23; NCI-H23, 48 h, read-out: GI",4%
same,growth inhibition (GI),ACHN,inactive
same,inhibition of growth at 10 µM,"MCF7; MCF7, 48 h, read-out: GI",3%
same,inhibition of growth at 10 µM,PC-3,1%
same,inhibition of growth at 10 µM,A498,24%
same,inhibition of growth at 10 µM,"SK-MEL-2; SK-MEL-2, 48 h, read-out: GI",1%
same,growth inhibition (GI),COLO 205,inactive
same,inhibition of growth at 10 µM,SNB-75,12%
same,growth inhibition (GI),HOP-62,inactive
same,inhibition of growth at 10 µM,"SW-620; SW-620, 48 h, read-out: GI",1%
same,inhibition of growth at 10 µM,CCRF-CEM; read-out: GI,5%
same,growth inhibition (GI),MDA-MB-231,inactive
